Assay results reported in the supplement of paper PMC11061612.

What was measured:
[1] = system: SK-OV-3 (Ovarian Carcinoma); assay: combination Emax (second highest fraction inhibited in the dose matrix, 72 h); higher = more inhibition; extreme values may be limits of the assay
In short: (§1)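 Cell lines in DMEM/F12 or RPMI with 10% FBS were plated in 1536-well plates, held 24 hours at 37°C, 5% CO2, then given two-drug dose matrices for 72 hours (DMSO typically 0.2%). Viability was read by CellTiter-Glo 2.0 luminescence and scaled as inhibition from 0 (vehicle wells) to 1 (blank wells). Combination Emax is the second-highest inhibition in the matrix; Bliss excess is observed combination effect minus expected EA + EB − EA·EB, EA and EB being single-agent effects.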

[2] = system: K5 (Thyroid Gland Carcinoma); assay: as above
In short: as §1

[3] = system: SUP-T1 (T-Lymphoblastic Leukemia); assay: as above
In short: as §1

[4] = system: HDLM-2 (Hodgkin's Lymphoma); assay: as above
In short: as §1

[5] = system: LU-139 (Small Cell Lung Carcinoma); assay: as above
In short: as §1

[6] = system: NB14 (Neuroblastoma); assay: as above
In short: as §1

[7] = system: OC-314 (Ovarian Carcinoma); assay: as above
In short: as §1

[8] = system: SU-DHL-6 (B-Cell Non-Hodgkin's Lymphoma); assay: as above
In short: as §1

[9] = system: SW1116 (Colorectal Carcinoma); assay: as above
In short: as §1

[10] = system: NCI-H2795 (Mesothelioma); assay: as above
In short: as §1

[11] = system: K5 (Thyroid Gland Carcinoma); assay: Bliss excess, mean over the matrix (fraction); higher = more synergy
In short: as §1

[12] = system: Mewo (Melanoma); assay: as above
In short: as §1

[13] = system: SUP-T1 (T-Lymphoblastic Leukemia); assay: as above
In short: as §1

[14] = system: 8305C (Thyroid Gland Carcinoma); assay: as above
In short: as §1

[15] = system: NCI-H69 (Small Cell Lung Carcinoma); assay: as above
In short: as §1

[16] = system: HDLM-2 (Hodgkin's Lymphoma); assay: as above
In short: as §1

[17] = system: NB14 (Neuroblastoma); assay: as above
In short: as §1

[18] = system: EN (Endometrial Carcinoma); assay: as above
In short: as §1

[19] = system: HARA (Squamous Cell Lung Carcinoma); assay: as above
In short: as §1

[20] = system: NCI-H2461 (Mesothelioma); assay: as above
In short: as §1
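Throughout, for Bliss excess, mean over the matrix: after 72 h of two-drug dosing.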

| SMILES | combination Emax [1] | combination Emax [2] | combination Emax [3] | combination Emax [4] | combination Emax [5] | combination Emax [6] | combination Emax [7] | combination Emax [8] | combination Emax [9] | combination Emax [10] | Bliss excess [11] | Bliss excess [12] | Bliss excess [13] | Bliss excess [14] | Bliss excess [15] | Bliss excess [16] | Bliss excess [17] | Bliss excess [18] | Bliss excess [19] | Bliss excess [20] |
| --- | --- | --- | --- | --- | --- | --- | --- | --- | --- | --- | --- | --- | --- | --- | --- | --- | --- | --- | --- | --- |
| CC1(C)CCC(CN2CCN(c3ccc(C(=O)NS(=O)(=O)c4ccc(NCC5CCOCC5)c([N+](=O)[O-])c4)c(Oc4cnc5[nH]ccc5c4)c3)CC2)=C(c2ccc(Cl)cc2)C1 [Venetoclax] + CS(=O)(=O)CCNCc1ccc(-c2ccc3ncnc(Nc4ccc(OCc5cccc(F)c5)c(Cl)c4)c3c2)o1 [Lapatinib] (first compound max 1 µM, 7x7, partner max 10 µM) | 0.345 | 0.187 | 0.484 | 0.629 | 0.19 | 0.948 | 0.399 | 0.975 | 0.288 | 0.341 | -0.0404 | -0.0949 | -0.0249 | -0.0112 | 0.0391 | 0.0315 | 0.0606 | -0.0492 | -0.02 | -0.04 |
| O=C(c1cc(Cc2n[nH]c(=O)c3ccccc23)ccc1F)N1CCN(C(=O)C2CC2)CC1 [Olaparib] + CC1(C)CCC(CN2CCN(c3ccc(C(=O)NS(=O)(=O)c4ccc(NCC5CCOCC5)c([N+](=O)[O-])c4)c(Oc4cnc5[nH]ccc5c4)c3)CC2)=C(c2ccc(Cl)cc2)C1 [Venetoclax] (first compound max 10 µM, 7x7, partner max 1 µM) | 0.139 | 0.156 | 0.479 | 0.322 | 0.655 | 0.465 | 0.188 | 0.719 | 0.097 | 0.284 | -0.0388 | -0.0766 | -0.0572 | -0.0213 | 0.158 | 0.0921 | 0.0052 | -0.0025 | -0.0206 | -0.0373 |
| C[C@@H]1COCCN1c1cc(C2([S@](C)(=N)=O)CC2)nc(-c2ccnc3[nH]ccc23)n1 [AZD6738] + C1CC(C1)(C(=O)[O-])C(=O)[O-].N.N.[Pt+2] [Carboplatin] (first compound max 10 µM, 7x7, partner max 10 µM) | 0.36 | 0.517 | 0.719 | 0.472 | 0.258 | 0.952 | 0.814 | 0.285 | 0.247 | 0.573 | -0.0728 | -0.0192 | -0.0298 | -0.046 | -0.032 | 0.0001 | -0.0044 | -0.0335 | -0.0226 | -0.05 |
| C[C@@H]1COCCN1c1cc(C2([S@](C)(=N)=O)CC2)nc(-c2ccnc3[nH]ccc23)n1 [AZD6738] + Nc1ccn([C@@H]2O[C@H](CO)[C@@H](O)C2(F)F)c(=O)n1 [Gemcitabine] (first compound max 10 µM, 7x7, partner max 0.3 µM) | 0.625 | 0.778 | 0.852 | 0.77 | 0.841 | 1 | 0.993 | 0.945 | 0.553 | 0.874 | 0.034 | 0.0475 | 0.0041 | 0.0252 | 0.035 | 0.0754 | 0.04 | 0.0613 | 0.0343 | -0.0436 |
| C[C@@H](Nc1cc(F)cc(F)c1)c1cc(C(=O)N(C)C)cc2c(=O)cc(N3CCOCC3)oc12 [AZD8186] + C1CN(CCC1(C(=O)N[C@@H](CCO)C2=CC=C(C=C2)Cl)N)C3=NC=NC4=C3C=CN4 [AZD5363] (first compound max 10 µM, 7x7, partner max 10 µM) | 0.426 | 0.466 | 0.553 | 0.235 | 0.0726 | 0.213 | 0.562 | 1 | 0.206 | 0.409 | -0.062 | -0.001 | -0.0718 | -0.0642 | -0.0566 | -0.0194 | -0.0318 | 0.0157 | -0.0301 | -0.0449 |
| C[C@@H](Nc1cc(F)cc(F)c1)c1cc(C(=O)N(C)C)cc2c(=O)cc(N3CCOCC3)oc12 [AZD8186] + CC(=O)c1c(C)c2cnc(Nc3ccc(N4CCNCC4)cn3)nc2n(C2CCCC2)c1=O [Palbociclib] (first compound max 10 µM, 7x7, partner max 10 µM) | 0.394 | 0.509 | 0.651 | 0.333 | 0.115 | 0.536 | 0.594 | 0.999 | 0.175 | 0.53 | -0.0142 | -0.0155 | -0.0616 | 0.0133 | 0.0121 | 0.0121 | 0.075 | -0.0262 | 0.0281 | -0.0113 |
| Cc1c2c(nn1C)CSCc1cc(n(C)n1)CSc1cc(c3ccccc3c1)OCCCc1c(C(=O)O)n(C)c3c-2c(Cl)ccc13 [AZD5991] + CS(=O)(=O)CCNCc1ccc(-c2ccc3ncnc(Nc4ccc(OCc5cccc(F)c5)c(Cl)c4)c3c2)o1 [Lapatinib] (first compound max 1 µM, 7x7, partner max 10 µM) | 0.347 | 0.237 | 0.488 | 0.961 | 0.201 | 0.936 | 0.506 | 1 | 0.395 | 0.877 | -0.0063 | -0.013 | -0.0863 | -0.042 | -0.0745 | 0.0262 | 0.0335 | -0.0129 | 0.0632 | -0.0273 |
| O=C(c1cc(Cc2n[nH]c(=O)c3ccccc23)ccc1F)N1CCN(C(=O)C2CC2)CC1 [Olaparib] + CN(CC[C@H](CSC1=CC=CC=C1)NC2=C(C=C(C=C2)S(=O)(=O)NC(=O)C3=CC=C(C=C3)N4CCC(CC4)[C@H](C5=CC=CC=C5C6=CC=C(C=C6)Cl)O)S(=O)(=O)C(F)(F)F)CCO [AZD4320] (first compound max 10 µM, 7x7, partner max 1 µM) | 0.219 | 0.199 | 0.602 | 0.878 | 0.958 | 0.882 | 0.262 | 0.919 | 0.118 | 0.451 | -0.0148 | -0.0615 | -0.0301 | -0.0062 | 0.0294 | -0.0141 | 0.0027 | -0.0184 | -0.0379 | -0.0534 |
| CN(CCO)CC[C@H](CSc1ccccc1)Nc1ccc(S(=O)(=O)NC(=O)c2ccc(N3CCC([C@@H](O)c4ccccc4-c4ccc(Cl)cc4)CC3)cc2)cc1S(=O)(=O)C(F)(F)F [AZD4320] + CS(=O)(=O)CCNCc1ccc(-c2ccc3ncnc(Nc4ccc(OCc5cccc(F)c5)c(Cl)c4)c3c2)o1 [Lapatinib] (first compound max 1 µM, 7x7, partner max 10 µM) | 0.869 | 0.355 | 0.866 | 0.985 | 0.985 | 0.993 | 0.729 | 0.997 | 0.823 | 0.71 | 0.0213 | -0.0386 | 0.0226 | -0.0526 | 0.0363 | -0.0018 | 0.0356 | -0.0532 | 0.027 | 0.0115 |
| N#Cc1cnc(Nc2cc(NC[C@H]3CNCCO3)c(C(F)(F)F)cn2)cn1 [SRA737] + C=CCn1c(=O)c2cnc(Nc3ccc(N4CCN(C)CC4)cc3)nc2n1-c1cccc(C(C)(C)O)n1 [AZD1775] (first compound max 10 µM, partner max 1 µM) | 0.572 | 0.395 | 0.766 | 0.697 | 0.564 | 0.997 | 0.928 | 0.933 | 0.405 | 0.707 | -0.0051 | -0.0149 | -0.0003 | 0.0356 | 0.0231 | -0.0363 | 0.0644 | 0.0422 | 0.0442 | 0.0428 |
| CN(CCO)CC[C@H](CSc1ccccc1)Nc1ccc(S(=O)(=O)NC(=O)c2ccc(N3CCC([C@@H](O)c4ccccc4-c4ccc(Cl)cc4)CC3)cc2)cc1S(=O)(=O)C(F)(F)F [AZD4320] + C[C@@H](Nc1cc(F)cc(F)c1)c1cc(C(=O)N(C)C)cc2c(=O)cc(N3CCOCC3)oc12 [AZD8186] (first compound max 1 µM, 7x7, partner max 3 µM) | 0.407 | 0.619 | 0.887 | 0.847 | 0.943 | 1 | 0.433 | 1 | 0.275 | 0.779 | -0.0505 | 0.0471 | -0.0192 | 0.0676 | -0.0208 | 0.0434 | 0.0025 | -0.0377 | 0.0233 | -0.0052 |
